Assay results taken from PubChem BioAssay (NCI).
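Five compound concentrations were applied to cells in 96-well plates for 48 hours; endpoints were derived by simple linear interpolation of the resulting dose-response curve. GI50 marks 50% less growth. TGI is the concentration that stops growth completely.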

Tests used:
Assay in all cases: DTP human tumour cell line panel, 48 h
SK-MEL-5 melanoma = test system: SK-MEL-5 melanoma
HOP-92 NSCLC = test system: HOP-92 NSCLC
MDA-MB-468 breast = test system: MDA-MB-468 breast
HT29 colon = test system: HT29 colon
DU-145 prostate = test system: DU-145 prostate
SF-539 CNS = test system: SF-539 CNS
SW-620 colon = test system: SW-620 colon
MCF7 breast = test system: MCF7 breast
TK-10 renal = test system: TK-10 renal
UACC-62 melanoma = test system: UACC-62 melanoma
OVCAR-4 ovarian = test system: OVCAR-4 ovarian
SN12C renal = test system: SN12C renal
HS 578T breast = test system: HS 578T breast
LOX IMVI melanoma = test system: LOX IMVI melanoma
KM12 colon = test system: KM12 colon
U251 CNS = test system: U251 CNS
OVCAR-3 ovarian = test system: OVCAR-3 ovarian
SK-MEL-2 melanoma = test system: SK-MEL-2 melanoma
HCC-2998 colon = test system: HCC-2998 colon
ACHN renal = test system: ACHN renal
SF-295 CNS = test system: SF-295 CNS
SK-MEL-28 melanoma = test system: SK-MEL-28 melanoma
COLO 205 colon = test system: COLO 205 colon
BT-549 breast = test system: BT-549 breast
SNB-75 CNS = test system: SNB-75 CNS
HCT-15 colon = test system: HCT-15 colon
MDA-MB-435 = test system: MDA-MB-435
K-562 leukemia = test system: K-562 leukemia
OVCAR-5 ovarian = test system: OVCAR-5 ovarian
A498 renal = test system: A498 renal
NCI-H226 lung = test system: NCI-H226 lung
NCI-H23 lung = test system: NCI-H23 lung
MOLT-4 leukemia = test system: MOLT-4 leukemia
M14 melanoma = test system: M14 melanoma
HOP-62 NSCLC = test system: HOP-62 NSCLC
NCI-H522 lung = test system: NCI-H522 lung
T-47D breast = test system: T-47D breast
SF-268 CNS = test system: SF-268 CNS
A549 NSCLC = test system: A549 NSCLC
MDA-MB-231 breast = test system: MDA-MB-231 breast
SNB-19 CNS = test system: SNB-19 CNS
MALME-3M melanoma = test system: MALME-3M melanoma
RXF 393 renal = test system: RXF 393 renal
SR leukemia = test system: SR leukemia
HCT-116 colon = test system: HCT-116 colon
786-0 renal = test system: 786-0 renal
HL-60(TB) leukemia = test system: HL-60(TB) leukemia
NCI-H460 lung = test system: NCI-H460 lung
SK-OV-3 ovarian = test system: SK-OV-3 ovarian
RPMI-8226 leukemia = test system: RPMI-8226 leukemia
OVCAR-8 ovarian = test system: OVCAR-8 ovarian
UO-31 renal = test system: UO-31 renal
UACC-257 melanoma = test system: UACC-257 melanoma
CAKI-1 renal = test system: CAKI-1 renal
EKVX NSCLC = test system: EKVX NSCLC
PC-3 prostate = test system: PC-3 prostate
IGROV1 ovarian = test system: IGROV1 ovarian
CCRF-CEM leukemia = test system: CCRF-CEM leukemia

O=C1Nc2cc(Cl)ccc2/C1=C/c1cccc(OCc2ccccc2)c1
GI50 (SK-MEL-5 melanoma): 3.17 µM | TGI (SK-MEL-5 melanoma): 11.4 µM | GI50 (HOP-92 NSCLC): 1.33 µM | TGI (HOP-92 NSCLC): 9.75 µM | GI50 (MDA-MB-468 breast): 2.43 µM | TGI (MDA-MB-468 breast): 14.1 µM | GI50 (HT29 colon): 5.92 µM | TGI (HT29 colon): 20.3 µM | GI50 (DU-145 prostate): 10.9 µM | TGI (DU-145 prostate): 42.1 µM | GI50 (SF-539 CNS): 2.27 µM | TGI (SF-539 CNS): 5.49 µM | GI50 (SW-620 colon): 3.59 µM | TGI (SW-620 colon): 14.5 µM | GI50 (MCF7 breast): 1.67 µM | TGI (MCF7 breast): 12.9 µM | GI50 (TK-10 renal): 16.2 µM | TGI (TK-10 renal): 35.9 µM | GI50 (UACC-62 melanoma): 2.41 µM | TGI (UACC-62 melanoma): 10.1 µM | GI50 (OVCAR-4 ovarian): 3.7 µM | TGI (OVCAR-4 ovarian): 19.1 µM | GI50 (SN12C renal): 6.93 µM | TGI (SN12C renal): 20.3 µM | GI50 (HS 578T breast): 3.46 µM | TGI (HS 578T breast): 22.8 µM | GI50 (LOX IMVI melanoma): 2.75 µM | TGI (LOX IMVI melanoma): 11.4 µM | GI50 (KM12 colon): 3.69 µM | TGI (KM12 colon): 14.1 µM | GI50 (U251 CNS): 3.5 µM | TGI (U251 CNS): 13.7 µM | GI50 (OVCAR-3 ovarian): 2.89 µM | TGI (OVCAR-3 ovarian): 9.48 µM | GI50 (SK-MEL-2 melanoma): 3.68 µM | TGI (SK-MEL-2 melanoma): 15 µM | GI50 (HCC-2998 colon): 11.9 µM | TGI (HCC-2998 colon): 25.3 µM | GI50 (ACHN renal): 3.97 µM | TGI (ACHN renal): 16.1 µM | GI50 (SF-295 CNS): 5.18 µM | TGI (SF-295 CNS): 21 µM | GI50 (SK-MEL-28 melanoma): 5.3 µM | TGI (SK-MEL-28 melanoma): 17.9 µM | GI50 (COLO 205 colon): 13.8 µM | TGI (COLO 205 colon): 30.2 µM | GI50 (BT-549 breast): 2.44 µM | TGI (BT-549 breast): 11.2 µM | GI50 (SNB-75 CNS): 3.23 µM | TGI (SNB-75 CNS): 21.2 µM | GI50 (HCT-15 colon): 2.58 µM | TGI (HCT-15 colon): 13.3 µM | GI50 (MDA-MB-435): 2.04 µM | TGI (MDA-MB-435): 4.45 µM | GI50 (K-562 leukemia): 2.13 µM | TGI (K-562 leukemia): 10.2 µM | GI50 (OVCAR-5 ovarian): 11.8 µM | TGI (OVCAR-5 ovarian): 24.4 µM | GI50 (A498 renal): 13.7 µM | TGI (A498 renal): 27.9 µM | GI50 (NCI-H226 lung): 6.43 µM | TGI (NCI-H226 lung): 22.2 µM | GI50 (NCI-H23 lung): 4.23 µM | TGI (NCI-H23 lung): 21.5 µM | GI50 (MOLT-4 leukemia): 2.69 µM | TGI (MOLT-4 leukemia): 10.9 µM | GI50 (M14 melanoma): 3.19 µM | TGI (M14 melanoma): 15.5 µM | GI50 (HOP-62 NSCLC): 9.61 µM | TGI (HOP-62 NSCLC): 29.1 µM | GI50 (NCI-H522 lung): 2.93 µM | TGI (NCI-H522 lung): 12.2 µM | GI50 (T-47D breast): 4.73 µM | TGI (T-47D breast): 30 µM | GI50 (SF-268 CNS): 3.26 µM | TGI (SF-268 CNS): 15.1 µM | GI50 (A549 NSCLC): 10 µM | TGI (A549 NSCLC): 24.9 µM | GI50 (MDA-MB-231 breast): 4.76 µM | TGI (MDA-MB-231 breast): 18.6 µM | GI50 (SNB-19 CNS): 10.2 µM | TGI (SNB-19 CNS): 25.7 µM | GI50 (MALME-3M melanoma): 4.3 µM | TGI (MALME-3M melanoma): 16.7 µM | GI50 (RXF 393 renal): 10.8 µM | TGI (RXF 393 renal): 24.4 µM | GI50 (SR leukemia): 2.1 µM | TGI (SR leukemia): 5.86 µM | GI50 (HCT-116 colon): 2.43 µM | TGI (HCT-116 colon): 12.7 µM | GI50 (786-0 renal): 3.12 µM | TGI (786-0 renal): 15.9 µM | GI50 (HL-60(TB) leukemia): 2.23 µM | TGI (HL-60(TB) leukemia): 6.49 µM | GI50 (NCI-H460 lung): 3.24 µM | TGI (NCI-H460 lung): 11.5 µM | GI50 (SK-OV-3 ovarian): 13.1 µM | TGI (SK-OV-3 ovarian): 31.6 µM | GI50 (RPMI-8226 leukemia): 2.13 µM | TGI (RPMI-8226 leukemia): 11.7 µM | GI50 (OVCAR-8 ovarian): 6.86 µM | TGI (OVCAR-8 ovarian): 25.3 µM | GI50 (UO-31 renal): 2.45 µM | TGI (UO-31 renal): 18.6 µM | GI50 (UACC-257 melanoma): 6.18 µM | TGI (UACC-257 melanoma): 21.2 µM | GI50 (CAKI-1 renal): 2.77 µM | TGI (CAKI-1 renal): 16.4 µM | GI50 (EKVX NSCLC): 5.35 µM | TGI (EKVX NSCLC): 23.7 µM | GI50 (PC-3 prostate): 4.67 µM | TGI (PC-3 prostate): 20.5 µM | GI50 (IGROV1 ovarian): 3.43 µM | TGI (IGROV1 ovarian): 18.3 µM | GI50 (CCRF-CEM leukemia): 2.86 µM | TGI (CCRF-CEM leukemia): 13.1 µM
